Experiment: xn = mol fraction of the nth substance listed

ClC(Cl)Cl + CO
viscosity [mPa·s]
Conditions	101 kPa	101.3 kPa
303 K, x1 = 0.096	–	0.5644
303 K, x1 = 0.1963	–	0.6289
303 K, x1 = 0.2971	–	0.6315
303 K, x1 = 0.4963	–	0.5872
303 K, x1 = 0.6952	–	0.5447
303 K, x1 = 0.9092	–	0.5211
303.15 K, x1 = 0.0499	0.59	–
303.15 K, x1 = 0.1326	0.642	–
303.15 K, x1 = 0.3228	0.653	–
303.15 K, x1 = 0.4234	0.634	–
303.15 K, x1 = 0.5123	0.621	–
303.15 K, x1 = 0.6981	0.608	–
303.15 K, x1 = 0.8262	0.61	–
303.15 K, x2 = 0.0625	0.509	0.509
303.15 K, x2 = 0.0947	0.5084	0.5084
303.15 K, x2 = 0.1406	0.5099	0.5099
303.15 K, x2 = 0.183	0.5138	0.5138
303.15 K, x2 = 0.2165	0.5168	0.5168
303.15 K, x2 = 0.3004	0.5296	0.5296
303.15 K, x2 = 0.3311	0.5343	0.5343
303.15 K, x2 = 0.3671	0.5424	0.5424
303.15 K, x2 = 0.3854	0.546	0.546
303.15 K, x2 = 0.4503	0.5601	0.5601
303.15 K, x2 = 0.5306	0.5764	0.5764
303.15 K, x2 = 0.615	0.5904	0.5904
303.15 K, x2 = 0.7056	0.5975	0.5975
303.15 K, x2 = 0.743	0.5962	0.5962
303.15 K, x2 = 0.8147	0.5864	0.5864
303.15 K, x2 = 0.8944	0.5613	0.5613
303.15 K, x2 = 0.9355	0.5417	0.5417
303.15 K, x2 = 0.961	0.5281	0.5281
311 K, x1 = 0.096	–	0.5043
311 K, x1 = 0.1963	–	0.5549
311 K, x1 = 0.2971	–	0.5593
311 K, x1 = 0.4963	–	0.5271
311 K, x1 = 0.6952	–	0.4971
311 K, x1 = 0.9092	–	0.4822
313.15 K, x1 = 0.0499	0.527	–
313.15 K, x1 = 0.1326	0.557	–
313.15 K, x1 = 0.3228	0.566	–
313.15 K, x1 = 0.4234	0.554	–
313.15 K, x1 = 0.5123	0.549	–
313.15 K, x1 = 0.6981	0.545	–
313.15 K, x1 = 0.8262	0.55	–
319 K, x1 = 0.096	–	0.4586
319 K, x1 = 0.1963	–	0.4932
319 K, x1 = 0.2971	–	0.5022
319 K, x1 = 0.4963	–	0.4779
319 K, x1 = 0.6952	–	0.4574
319 K, x1 = 0.9092	–	0.4489
323.15 K, x1 = 0.0499	0.439	–
323.15 K, x1 = 0.1326	0.448	–
323.15 K, x1 = 0.3228	0.451	–
323.15 K, x1 = 0.4234	0.468	–
323.15 K, x1 = 0.5123	0.474	–
323.15 K, x1 = 0.6981	0.482	–
323.15 K, x1 = 0.8262	0.496	–

O=CC(Cl)(Cl)Cl + CO
313.15 K, 101 kPa
Conditions	viscosity [mPa·s]
x1 = 0.0365	0.5111
x1 = 0.1162	0.9078
x1 = 0.2408	2.096
x1 = 0.3032	2.491
x1 = 0.4207	6.085
x1 = 0.444	6.591
x1 = 0.4731	7.389
x1 = 0.5032	7.028
x1 = 0.5958	3.182
x1 = 0.7159	1.792
x1 = 0.8416	1.198
x1 = 0.9603	0.8738

ClC(Cl)Cl + COC(=O)OC
viscosity [mPa·s], 101.33 kPa
Conditions	x2 = 0.0987	x2 = 0.2134	x2 = 0.3031	x2 = 0.4027	x2 = 0.5031	x2 = 0.6187	x2 = 0.7021	x2 = 0.7996	x2 = 0.9013
298.15 K	0.528	0.553	0.566	0.57	0.565	0.559	0.546	0.545	0.541
303.15 K	0.501	0.525	0.53	0.536	0.531	0.523	0.514	0.513	0.509
308.15 K	0.475	0.494	0.504	0.507	0.502	0.493	0.484	0.48	0.48

CCOCCOCC + COCCO
viscosity [mPa·s], 101.33 kPa
Conditions	298.15 K	308.15 K
x1 = 0.0157	1.497	1.223
x2 = 0.0142	0.608	0.529
x2 = 0.0354	0.617	0.539
x2 = 0.0658	0.631	0.549
x2 = 0.0821	0.639	0.553
x2 = 0.1085	0.647	0.561
x2 = 0.1503	0.663	0.578
x2 = 0.2016	0.685	0.592
x2 = 0.28	0.723	0.62
x2 = 0.3202	0.742	0.639
x2 = 0.3604	0.767	0.655
x2 = 0.4322	0.812	0.691
x2 = 0.4797	0.847	0.718
x2 = 0.5152	0.875	0.739
x2 = 0.5455	0.901	0.758
x2 = 0.5957	0.946	0.792
x2 = 0.6464	0.996	0.832
x2 = 0.7119	1.066	0.883
x2 = 0.7472	1.105	0.918
x2 = 0.8023	1.18	0.969
x2 = 0.8705	1.275	1.054
x2 = 0.9222	1.366	1.119
x2 = 0.9592	1.425	1.167

CCOCCOCC + COCCOCCO
viscosity [mPa·s], 101.33 kPa
Conditions	298.15 K	308.15 K
x1 = 0.0146	3.47	2.55
x2 = 0.0162	0.621	0.538
x2 = 0.0416	0.646	0.559
x2 = 0.0613	0.664	0.574
x2 = 0.0967	0.703	0.6
x2 = 0.1691	0.779	0.666
x2 = 0.2291	0.85	0.718
x2 = 0.2741	0.916	0.765
x2 = 0.3082	0.964	0.809
x2 = 0.344	1.014	0.849
x2 = 0.4006	1.115	0.929
x2 = 0.4593	1.232	1.017
x2 = 0.5082	1.346	1.097
x2 = 0.5635	1.492	1.203
x2 = 0.6145	1.65	1.306
x2 = 0.6552	1.793	1.423
x2 = 0.6969	1.949	1.503
x2 = 0.7526	2.186	1.654
x2 = 0.8075	2.441	1.823
x2 = 0.8567	2.699	1.995
x2 = 0.9074	2.985	2.19
x2 = 0.9515	3.253	2.386
